Laboratory results reported in article PMC6627486, “Ipomoeassin F Binds Sec61α to Inhibit Protein Translocation” (Journal of the American Chemical Society, 2019).
pEC50: −log10 of the molar value.

Key:
[1] = system: GLuc secretion in SH-SY5Y cells; experiment: SH-SY5Y GLuc secretion assay; format: cell-based; settings: Homo sapiens, read-out: GLuc secretion inhibition EC50
[2] = system: MDA-MB-231 cells; experiment: Live cell imaging with fluorescent probe 12; format: cell-based, human; settings: 30 min preincubation, 100-fold excess competitor
Method: MDA-MB-231 cells were seeded on fibronectin-coated coverslips at 70% confluency in a 48-well plate and cultured at 37 °C and 5% CO2. After 24 h, culture medium was replaced with fresh medium containing a 20 µM competitor or an equal volume of DMSO vehicle for 30 min at 37 °C and 5% CO2, followed by addition of 0.2 µM (final concentration) fluorescent probe 12. After 1 h incubation at 37 °C and 5% CO2, the coverslips were mounted onto a glass slide with a mounting medium with or without 0.5 µg/ml DAPI.
The fluorescent images were acquired with a confocal microscope (Leica TCS SP5) using 405 nm excitation and 562 nm excitation. For the ER co-localization studies, 1 uM ER-Tracker™ Blue-White DPX was added to the medium after 1 h incubation with probe 12. After 5 min incubation, the coverslips were mounted onto a glass slide and the images were acquired as described above.
CT7 photo-affinity labeling and click chemistry were done as previously described.14 Briefly, SRMs (sheep rough microsomes, isolated as described in reference15) containing 100 nM Sec61 were treated with 10 µM ipomoeassin F/mycolactone or 1% DMSO for 30 min at 0°C, followed by incubation with 100 nM CT7 for 10 min RT. Samples were then photolyzed for 10 min and crosslinked proteins were detected by click chemistry, SDS-PAGE, and in-gel fluorescent scanning (Typhoon Trio, GE Healthcare). […]

[3] = system: TNF production by RAW264.7 cells; experiment: TNF production washout assay in LPS-stimulated RAW264.7 cells; format: cell-based; settings: 250 nM ipomoeassin F, 125 ng/mL mycolactone; for TNF production after 24 h washout: 1 h incubation, washed, 24 h recovery, then LPS 4 h; for TNF production, direct assay: 1 h preincubation, then 100 ng/mL LPS 4 h
Method: The reversibility of the inhibition of secreted protein production by ipomoeassin F was determined by following the production of TNF in RAW264.7 cells as described before.22 Briefly, RAW264.7 cells were maintained at 37 °C and 5% CO2 in high glucose DMEM (Merck), supplemented with 10% heat-inactivated FBS (GIBCO). Cells were plated into 24 well plates at a concentration of 1 x 10^5/ml 24 hour prior to assay, then incubated for 1 hour in the presence or absence of 125 ng/ml mycolactone, 250 nM Ipomoeassin F or DMSO carrier. Cells were either stimulated directly with 100 ng/ml TLR-grade LPS (Enzo) or washed 3 times with medium and incubated 24 hour, then stimulated with LPS. In each case, cells were incubated with LPS for 4 hour then the supernatants were removed. The concentration of TNF in supernatants was quantified by ELISA (eBioscience).

| Structure (SMILES) | pEC50 [1] | effect of competitor on fluorescence signal of 12 [2] | TNF production after 24 h washout [3] | TNF production, direct assay [3] |
| --- | --- | --- | --- | --- |
| C/C=C(\C)C(=O)O[C@@H]1[C@@H](O)[C@@H]2O[C@H]3[C@H](O[C@@H](CCCCC)CCCCCCC(=O)CCC(=O)OC[C@@H](O2)[C@H]1OC(=O)/C=C/c1ccccc1)O[C@H](C)[C@H](OC(C)=O)[C@@H]3O [ipomoeassin F] | ~6.92 | almost completely abolished | restored, albeit at a reduced level | similarly blocked TNF production |
| CC(=C\C=C\C(C)=C\[C@H](O)[C@@H](O)C[C@H](C)O)/C=C(C)/C=C/C(=O)O[C@H]1CCCC(=O)O[C@@H]([C@@H](C)C/C(C)=C/[C@@H](C)[C@H](O)C[C@@H](C)O)C/C=C(\C)C[C@@H]1C [mycolactone, reference compound] |  |  | not to be restored | completely block TNF production |
